Measured values as given in patent publication US11357779B2 (G1 Therapeutics, Inc., priority 2018, dated 2022).
Read-outs that look alike come from different tables or passages of the source.

Assay: Plasma concentration versus time of Compound I and metabolite Compound III in patients dosed QD or BID with Form B of Compound II plus fulvestrant
Type: in vivo, human
Conditions: human, plasma, oral; for concentration at 8 day: Day 8; for concentration at 15 day: Day 15; for concentration at 22 day: Day 22
Source text: Patients were enrolled into 1 of 2 parallel, independently operating, dose-escalation dosing cohorts with Form B of Compound II administered continuously either once daily (QD) or twice daily (BID) with food with fixed-dose fulvestrant (intramuscularly every 14 days for the first three injections and then every 28 days). Pre- or perimenopausal patients also received goserelin for the duration of study treatment. A […] agonist was started at least 28 days before the first dose of Form B, and those patients who were taking another LHRH agonist were switched to goserelin on Day 1. Patients were split into […] cohorts providing once a day (QD) dosing of 200 mg, 300 mg, 400 mg, 500 mg, or 650 mg of Form B, or twice a day (BID) dosing of 100 mg, 150 mg, or 200 mg of Form B. The second dose in BID cohorts was not administered in the evening until at least 12 hours after the initial morning dose of Form B. The dosing cohorts for Form B of Compound II are provided in Table 1.
Blood samples were collected at the following time points relative to the morning dose of Form B at Day 1 and at Day 29: pre-dose (0 hour) and 1, 2, 3, 4, 6, 8, 10, 12 (prior to the evening dose in the BID cohorts), and 24 (prior to the next day's morning dose) hours after dosing. A 5-minute time window was allowed for samples collected between the predose and 3 hours after Form B dosing. A 15-minute window was allowed for samples collected between 4 to 12 hours after Form B dosing. A 1-hour window was allowed for the sample collected 24 hours after Form B dosing. Blood samples for Compound I PK trough levels were collected pre-dose at Day 8, Day 15, and Day 22 prior to the morning administration of Compound I. Plasma concentrations of Compound I and its metabolite, Compound III, were measured using validated methods.
Analysis of plasma concentration versus time data for calculation of standard pharmacokinetic (PK) parameters following oral administration was conducted using Phoenix WinNonlin version 6.3 using actual blood sampling times.

[1] = 650 mg, Cohort 5, 650 mg QD of Form B, read-out: Trough Compound III Concentration, Max
[2] = 650 mg, Cohort 5, 650 mg QD of Form B, read-out: Trough Compound III Concentration, Mean
[3] = 650 mg, Cohort 5, 650 mg QD of Form B, read-out: Trough Compound III Concentration, Median
[4] = 650 mg, Cohort 5, 650 mg QD of Form B, read-out: Trough Compound III Concentration, Min

**Q.** Which concentration at 8 h (500 mg, Cohort 4, 500 mg QD of Form B, Day 29, 8.0 h, read-out: Compound III Concentration, Mean) does the source give for `O=C1NCC2(CCCCC2)n2c1cc1cnc(Nc3ccc(N4CCNCC4)cn3)nc12` [Compound III, 2′-((5-(piperazin-1-yl)pyridin-2-yl)amino)-7′,8′-dihydro-6′H-spiro[cyclohexane-1,9′-pyrazino[1′,2′:1,5]pyrrolo[2,3-d]pyrimidin]-6′-one] here?
**A.** 3.56 ng/mL

**Q.** What about the concentration at 8 h (500 mg, Cohort 4, 500 mg QD of Form B, Day 29, 8.0 h, read-out: Compound III Concentration, Min) of the same compound?
**A.** 3.3 ng/mL

**Q.** What about the concentration at 10 h (500 mg, Cohort 4, 500 mg QD of Form B, Day 29, 10.0 h, read-out: Compound III Concentration, Max) of the same compound?
**A.** 2.88 ng/mL

**Q.** What about the concentration at 10 h (500 mg, Cohort 4, 500 mg QD of Form B, Day 29, 10.0 h, read-out: Compound III Concentration, Mean) of the same compound?
**A.** 2.66 ng/mL

**Q.** And the concentration at 10 h (500 mg, Cohort 4, 500 mg QD of Form B, Day 29, 10.0 h, read-out: Compound III Concentration, Min)?
**A.** 2.52 ng/mL

**Q.** What about the concentration at 12 h (500 mg, Cohort 4, 500 mg QD of Form B, Day 29, 12.0 h, read-out: Compound III Concentration, Max) of the same compound?
**A.** 2.55 ng/mL

**Q.** What about the concentration at 12 h (500 mg, Cohort 4, 500 mg QD of Form B, Day 29, 12.0 h, read-out: Compound III Concentration, Mean) of the same compound?
**A.** 2.33 ng/mL

**Q.** And the concentration at 12 h (500 mg, Cohort 4, 500 mg QD of Form B, Day 29, 12.0 h, read-out: Compound III Concentration, Min)?
**A.** 2.1 ng/mL

**Q.** And the concentration at 24 h (500 mg, Cohort 4, 500 mg QD of Form B, Day 29, […], read-out: Compound III Concentration, Mean)?
**A.** 1.24 ng/mL

**Q.** And the concentration at 24 h (500 mg, Cohort 4, 500 mg QD of Form B, Day 29, […], read-out: Compound III Concentration, Min)?
**A.** 0.959 ng/mL

**Q.** What about the concentration at 0 h (650 mg, 650 mg QD of Form B, Day 1, 0.0 h, Mean, read-out: Compound III Concentration) of the same compound?
**A.** 0 ng/mL

**Q.** And the concentration at 0 h (650 mg, 650 mg QD of Form B, Day 1, 0.0 h, Median, read-out: Compound III Concentration)?
**A.** 0 ng/mL

**Q.** And the concentration at 1 h (650 mg, 650 mg QD of Form B, Day 1, 1.0 h, Mean, read-out: Compound III Concentration)?
**A.** 2.73 ng/mL

**Q.** And the concentration at 1 h (650 mg, 650 mg QD of Form B, Day 1, 1.0 h, Median, read-out: Compound III Concentration)?
**A.** 2.77 ng/mL

**Q.** And the concentration at 2 h (650 mg, 650 mg QD of Form B, Day 1, 2.0 h, Mean, read-out: Compound III Concentration)?
**A.** 4.01 ng/mL

**Q.** What about the concentration at 2 h (650 mg, 650 mg QD of Form B, Day 1, 2.0 h, Median, read-out: Compound III Concentration) of the same compound?
**A.** 3.81 ng/mL

**Q.** And the concentration at 3 h (650 mg, 650 mg QD of Form B, Day 1, 3.0 h, Mean, read-out: Compound III Concentration)?
**A.** 6.13 ng/mL

**Q.** What about the concentration at 3 h (650 mg, 650 mg QD of Form B, Day 1, 3.0 h, Median, read-out: Compound III Concentration) of the same compound?
**A.** 6.43 ng/mL

**Q.** What about the concentration at 4 h (650 mg, 650 mg QD of Form B, Day 1, 4.0 h, Mean, read-out: Compound III Concentration) of the same compound?
**A.** 8.35 ng/mL

**Q.** What about the concentration at 4 h (650 mg, 650 mg QD of Form B, Day 1, 4.0 h, Median, read-out: Compound III Concentration) of the same compound?
**A.** 9.22 ng/mL

**Q.** And the concentration at 6 h (650 mg, 650 mg QD of Form B, Day 1, 6.0 h, Mean, read-out: Compound III Concentration)?
**A.** 9.69 ng/mL

**Q.** And the concentration at 6 h (650 mg, 650 mg QD of Form B, Day 1, 6.0 h, Median, read-out: Compound III Concentration)?
**A.** 10 ng/mL

**Q.** And the concentration at 8 h (650 mg, 650 mg QD of Form B, Day 1, 8.0 h, Mean, read-out: Compound III Concentration)?
**A.** 10.1 ng/mL

**Q.** And the concentration at 8 h (650 mg, 650 mg QD of Form B, Day 1, 8.0 h, Median, read-out: Compound III Concentration)?
**A.** 8.66 ng/mL

**Q.** What about the concentration at 10 h (650 mg, 650 mg QD of Form B, Day 1, 10.0 h, Mean, read-out: Compound III Concentration) of the same compound?
**A.** 6.63 ng/mL

**Q.** And the concentration at 10 h (650 mg, 650 mg QD of Form B, Day 1, 10.0 h, Median, read-out: Compound III Concentration)?
**A.** 5.32 ng/mL

**Q.** And the concentration at 12 h (650 mg, 650 mg QD of Form B, Day 1, 12.0 h, Mean, read-out: Compound III Concentration)?
**A.** 5.12 ng/mL

**Q.** What about the concentration at 12 h (650 mg, 650 mg QD of Form B, Day 1, 12.0 h, Median, read-out: Compound III Concentration) of the same compound?
**A.** 4.41 ng/mL

**Q.** What about the concentration at 24 h (650 mg, 650 mg QD of Form B, Day 1, […], Mean, read-out: Compound III Concentration) of the same compound?
**A.** 2.17 ng/mL

**Q.** What about the concentration at 24 h (650 mg, 650 mg QD of Form B, Day 1, […], Median, read-out: Compound III Concentration) of the same compound?
**A.** 1.51 ng/mL

**Q.** What about the concentration at 8 day [1] of the same compound?
**A.** 4.96 ng/mL

**Q.** What about the concentration at 8 day [2] of the same compound?
**A.** 3.55 ng/mL

**Q.** And the concentration at 8 day [3]?
**A.** 3.79 ng/mL

**Q.** What about the concentration at 8 day [4] of the same compound?
**A.** 1.65 ng/mL

**Q.** What about the concentration at 15 day [1] of the same compound?
**A.** 3.6 ng/mL

**Q.** And the concentration at 15 day [2]?
**A.** 3.13 ng/mL

**Q.** What about the concentration at 15 day [3] of the same compound?
**A.** 3.52 ng/mL

**Q.** What about the concentration at 15 day [4] of the same compound?
**A.** 2.28 ng/mL

**Q.** And the concentration at 22 day [1]?
**A.** 5.65 ng/mL

**Q.** And the concentration at 22 day [2]?
**A.** 3.7 ng/mL

**Q.** And the concentration at 22 day [3]?
**A.** 3.11 ng/mL

**Q.** What about the concentration at 22 day [4] of the same compound?
**A.** 2.34 ng/mL

**Q.** What about the concentration at 0 h (650 mg, Cohort 5, 650 mg QD of Form B, Day 29, 0.0 h, read-out: Compound III Concentration, Median) of the same compound?
**A.** 2.06 ng/mL

**Q.** And the concentration at 0 h (650 mg, Cohort 5, 650 mg QD of Form B, Day 29, 0.0 h, read-out: Compound III Concentration, Min)?
**A.** 1.3 ng/mL

**Q.** What about the concentration at 1 h (650 mg, Cohort 5, 650 mg QD of Form B, Day 29, 1.0 h, read-out: Compound III Concentration, Median) of the same compound?
**A.** 2.49 ng/mL

**Q.** And the concentration at 1 h (650 mg, Cohort 5, 650 mg QD of Form B, Day 29, 1.0 h, read-out: Compound III Concentration, Min)?
**A.** 1.28 ng/mL

**Q.** What about the concentration at 2 h (650 mg, Cohort 5, 650 mg QD of Form B, Day 29, 2.0 h, read-out: Compound III Concentration, Median) of the same compound?
**A.** 3.14 ng/mL

**Q.** And the concentration at 2 h (650 mg, Cohort 5, 650 mg QD of Form B, Day 29, 2.0 h, read-out: Compound III Concentration, Min)?
**A.** 1.85 ng/mL

**Q.** What about the concentration at 3 h (650 mg, Cohort 5, 650 mg QD of Form B, Day 29, 3.0 h, read-out: Compound III Concentration, Median) of the same compound?
**A.** 3.89 ng/mL

**Q.** What about the concentration at 3 h (650 mg, Cohort 5, 650 mg QD of Form B, Day 29, 3.0 h, read-out: Compound III Concentration, Min) of the same compound?
**A.** 2.61 ng/mL

**Q.** What about the concentration at 4 h (650 mg, Cohort 5, 650 mg QD of Form B, Day 29, 4.0 h, read-out: Compound III Concentration, Median) of the same compound?
**A.** 4.78 ng/mL

**Q.** And the concentration at 4 h (650 mg, Cohort 5, 650 mg QD of Form B, Day 29, 4.0 h, read-out: Compound III Concentration, Min)?
**A.** 3.42 ng/mL

**Q.** And the concentration at 6 h (650 mg, Cohort 5, 650 mg QD of Form B, Day 29, 6.0 h, read-out: Compound III Concentration, Median)?
**A.** 7.57 ng/mL

**Q.** And the concentration at 6 h (650 mg, Cohort 5, 650 mg QD of Form B, Day 29, 6.0 h, read-out: Compound III Concentration, Min)?
**A.** 5.3 ng/mL

**Q.** And the concentration at 8 h (650 mg, Cohort 5, 650 mg QD of Form B, Day 29, 8.0 h, read-out: Compound III Concentration, Median)?
**A.** 8.64 ng/mL

**Q.** And the concentration at 8 h (650 mg, Cohort 5, 650 mg QD of Form B, Day 29, 8.0 h, read-out: Compound III Concentration, Min)?
**A.** 5.18 ng/mL

**Q.** And the concentration at 10 h (650 mg, Cohort 5, 650 mg QD of Form B, Day 29, 10.0 h, read-out: Compound III Concentration, Min)?
**A.** 4.64 ng/mL

**Q.** And the concentration at 12 h (650 mg, Cohort 5, 650 mg QD of Form B, Day 29, 12.0 h, read-out: Compound III Concentration, Min)?
**A.** 3.42 ng/mL

**Q.** And the concentration at 24 h (650 mg, Cohort 5, 650 mg QD of Form B, Day 29, […], read-out: Compound III Concentration, Median)?
**A.** 3.04 ng/mL

**Q.** What about the concentration at 24 h (650 mg, Cohort 5, 650 mg QD of Form B, Day 29, […], read-out: Compound III Concentration, Min) of the same compound?
**A.** 2.49 ng/mL
